Key:
[1] = 25° C., 0.01M; cited from earlier work
[2] = Effect of pH on skin permeability (tritiated water permeation, Franz cells); format: in vitro ADME, human; conditions: 70 h passive permeation

SMILES | Log β (stability constant) [1] | average radioactive count in the receiver compartment ([2]; pH 2) [DPM/mL] | average radioactive count in the receiver compartment ([2]; pH 5) [DPM/mL]
O=C([O-])CC(O)(CC(=O)[O-])C(=O)[O-].[Ga+3] [Ga citrate] | 10.02 |  | 
[OH][Ga+][OH] [Ga(OH)2^+] | −6.6 |  | 
[Ga+3].[OH-].[OH-].[OH-] [Ga(OH)3] | −11.0 |  | 
[OH][Ga-]([OH])([OH])[OH] [Ga(OH)4^−] | −15.66 |  | 
[OH][Ga+2] [GaOH^++] | −2.9 |  | 
[3H]O[3H] [tritiated water, Tritiated water] |  | 55860±25106 | 60557±20376
